Like-named read-outs stand apart in the source and are kept apart here. Where only a bound is given, the exact number is not on record here.

The subject of data set [1] is Leishmania donovani. More on the design: method as in PMID 32281798. The following applies: J774A.1 macrophages, single point determination, ref [15], read-out: Leishmania donovani IC50 Infected Macrophage, cited from earlier work.
Data set [2] concerns J774A.1 macrophages. More on the design: method as in PMID 32281798. The following applies: ref [15], cited from earlier work.
The subject of data set [3] is Plasmodium falciparum. Description: Liver-stage Plasmodium falciparum assay in primary human hepatocytes. The following applies: for inhibition at 5 µg/mL: Plasmodium falciparum, Hepatocyte, 5 μg/mL, infected primary human hepatocytes, % (Standard Deviation), n = 3, read-out: Plasmodium falciparum Inhibition at 5 μg/mL Infected PHHs. In kind it is cell-based. The procedure:
(§1) The full suite of Dendrilla antarctica-derived compounds, with the exception of darwinolide (1) and dendrillin D (12) owing to mass limitations, were tested against Leishmania donovani infected macrophages, liver-stage sporozoites in primary human hepatocytes, and against MRSA biofilm. Cytotoxicity was evaluated using the mammalian J774A.1 cell line in L. donovani-active compounds, while primary human hepatocytes were evaluated for malaria-active compounds.
(§2) For the Plasmodium falciparum infected liver cells, screening was conducted at a fixed concentration of 5 µg/mL for each compound, and activities representing 60% inhibition and 100% inhibition are reported in comparison with the positive control primaquine. […] Aplysulphurin (2) at ≤13 μM was also active at the highest level.
(§3) The liver-stage Plasmodium falciparum assay was conducted as previously reported.

For another data set, the system named is MRSA biofilm. The data set can be described thus: MRSA biofilm eradication assay. It counts as cell-based, methicillin-resistant Staphylococcus aureus. To be noted: for inhibition at 25 µg/mL / inhibition at 50 µg/mL / inhibition at 100 µg/mL: Staphylococcus aureus, MRSA; for inhibition at 50 µg/mL: 50 μg/mL; for inhibition at 100 µg/mL: 100 μg/mL. The procedure: The MRSA biofilm assay was carried out at concentrations of 100, 50, and 25 µg/mL for each compound, and activities representing 50% and 90% eradication are reported.
The MRSA biofilm assay was conducted as previously reported.

Data set [4] can be described thus: Leishmania donovani infected macrophage assay. In kind it is cell-based. To be noted: mouse, J774A.1 cytotoxicity / L. donovani activity; read-out: selectivity index (SI, mammalian cytotoxicity/antiprotozoal activity). The procedure: as §1
(§4) The results from the Leishmania donovani assay (Table 2) indicate activity commensurate with the positive control and current standard of care, miltefosine (2.9 µM) is observed in aplysulphurin (2, 3.1 μM), tetrahydroaplysulphurin-1 (4, 3.5 μM), dendrillin B (10, 3.5 μM), 8-ketodihydrogracilin (13, 4.5 μM), and triol 15 (4.5 μM).
(§5) The Leishmania donovani cell line infected macrophage assay and cytotoxicity screen were conducted as previously described.

Data set [5] has as its system primary human hepatocytes. The data set can be described thus: Cytotoxicity towards uninfected primary human hepatocytes. It counts as cell-based. The following applies: for inhibition at 5 µg/mL: Hepatocyte, 5 μg/mL, uninfected primary human hepatocytes, % (Standard Deviation), n = 3, read-out: Plasmodium falciparum Inhibition at 5 μg/mL Uninfected PHHs. The procedure:
as §1, §2, §3

The test system of data set [6] is methicillin-resistant Staphylococcus aureus (MRSA) biofilm. More on the design: method as in PMID 27175857. To be noted: ref [17]; cited from earlier work.
The test system of data set [7] is Plasmodium falciparum. The data set can be described thus: Liver-stage Plasmodium falciparum assay in primary human hepatocytes. The following applies: Table 3; SI = J774 IC50/pathogen IC50. In kind it is cell-based.
For data set [8], the system named is Leishmania donovani. The data set can be described thus: Leishmania donovani infected macrophage assay. The following applies: for IC50: single point determination, read-out: Leishmania donovani IC50 Infected Macrophage. In kind it is cell-based. Here is the method:
as §1, §4, §5

Data set [9] has as its system J774A.1 macrophages. The data set can be described thus: J774A.1-cell cytotoxicity assay (uninfected macrophage). In kind it is cell-based. The following applies: Mus musculus, J774.A1; cytotoxicity, uninfected J774A.1 macrophages; single point determination; read-out: Leishmania donovani IC50 Uninfected Macrophage. The procedure:
as §1, §5

Experiment in data set [10]: as above
In kind it is cell-based. To be noted: mouse, J774A.1 macrophage cells (uninfected); Table 3; unit not given (μM in Table 2); read-out: J774 Cytotoxiciy. The procedure:
as §1, §5

For the compound `COC(=O)[C@H](C)c1c([C@@]2(C)CCCC(C)(C)C2)ccc2c1C(=O)OC2` [Membranolide (5), membranolide], the IC50 with Leishmania donovani [1] (listed as 5) was under 10 µM; in the data set on Leishmania donovani [1] it was 9.7 µM; in the data set with J774A.1 macrophages [2] (Table 3, no unit printed there, same values marked as from reference in Table 2, read-out: J774 Cytotoxiciy), 77 µM; in the data set with J774A.1 macrophages [2] (cytotoxicity, uninfected J774A.1 macrophages, single point determination, listed as membranolide (5), read-out: Leishmania donovani IC50 Uninfected Macrophage) it was 76.8 µM; in the data set on J774A.1 macrophages [2] (cytotoxicity, uninfected J774A.1 macrophages, single point determination, read-out: Leishmania donovani IC50 Uninfected Macrophage) it was 77 µM. Besides, the inhibition at 5 µg/mL in the data set with Plasmodium falciparum [3] came out at 59.7%; in data set [5], 0%. Besides, the “MRSA Biofilm Inhibition 25 μg/mL” value with MRSA biofilm (25 μg/mL, % (Std. Dev.), n = 6) is 99.7 (0.1) %. For the same compound, the inhibition at 25 µg/mL with MRSA biofilm (25 μg/mL, % (Std. Dev.), n = 6) is about 100%. The compound further returned an inhibition at 50 µg/mL in the data set on MRSA biofilm (% (Std. Dev.), n = 6) of 99.9%. For the same compound, in the data set on MRSA biofilm (% (Std. Dev.), n = 6), the inhibition at 100 µg/mL came out at 100%. Moreover, the “Pathogen Activity, MRSA Biofilm” value with MRSA biofilm (Table 3, no unit printed there (58 μM)) came out at 58. Moreover, the “concentration achieving 90% eradication of MRSA biofilm” value was 58 µM with MRSA biofilm (lowest concentration tested, 25 μg/mL, in molar units); 25 µg/mL in the data set with MRSA biofilm (tested at 100, 50 and 25 µg/mL, 90% eradication). In data set [4], the selectivity ratio amounted to 8.

As for `CC(=O)O[C@@H]1O[C@H]2OC(=O)C3=C(C)[C@@H]([C@@]4(C)CCCC(C)(C)C4)CC[C@@H]1[C@H]32` [darwinolide (1), darwinolide], the “potency against MRSA biofilm relative to planktonic MRSA” value in [6] is “four times more potent against the biofilm than it was against planktonic MRSA”.

`C[C@@H](CO)c1c([C@@]2(C)CCCC(C)(C)C2)ccc(CO)c1CO` [Triol (15)]: the inhibition at 5 µg/mL in the data set on Plasmodium falciparum [3] came to 81%; in data set [5] it was 2.2%. The “Pathogen Activity, Plasmodium falciparum” value in the data set on Plasmodium falciparum [3] (Table 3, no unit printed there (≤16 μM)) is at most 16. Moreover, in the data set with Plasmodium falciparum [3] (at low micromolar concentrations), the “inhibition of the parasite cultures (Plasmodium falciparum)” value came out at 100%. For the same compound, the “concentration with 100% inhibition against P. falciparum infected liver cells” value with Plasmodium falciparum [3] (screen at fixed 5 µg/mL, 100% inhibition level (highest level)) was at most 16 µM. This compound came in with an inhibition at 25 µg/mL in the data set with MRSA biofilm (25 μg/mL, % (Std. Dev.), n = 6) of 2.6%. For the same compound, the inhibition at 50 µg/mL in the data set on MRSA biofilm (% (Std. Dev.), n = 6) stood at 12.3%. The same compound came in with an inhibition at 100 µg/mL in the data set with MRSA biofilm (% (Std. Dev.), n = 6) of 9.3%. Further, the “Selectivity Index (SI), Plasmodium falciparum” value in the data set on Plasmodium falciparum [7] was over 10. In addition, in the data set with Leishmania donovani [8] (J774A.1 cytotoxicity / L. donovani activity), the “selectivity index (SI, mammalian cytotoxicity/antiprotozoal activity)” value was about 40. In addition, the IC50 in the data set with Leishmania donovani [8] (J774A.1 macrophages) was 4.2 µM; in the data set with Leishmania donovani [8] (Leishmania donovani, J774.A1, J774A.1 macrophages), 4.5 µM; in the data set with J774A.1 macrophages [9], over 160 µM; in data set [10] it was over 160 µM. Besides, the selectivity ratio in data set [4] is over 38. In addition, the “cytotoxicity towards uninfected primary human hepatocytes (in words)” value in data set [5] (5 µg/mL screen) is “no discernable cytotoxicity”.

The values are drawn from article PMC7344659, “Bioactivity of Spongian Diterpenoid Scaffolds from the Antarctic Sponge Dendrilla antarctica” (Marine Drugs, 2020).
